Assay results taken from PubChem BioAssay AID1259407 (Chemical Carcinogenesis Research Information System (CCRIS), 2018).
Calls of active or inactive are those of the source. How the calls were made is not given here.

System: CCRIS mutagenicity, Ames/micronucleus/aberration tests
Assay: CCRIS mutagenicity studies
[1] = Test System: AMES SALMONELLA TYPHIMURIUM, Strain/Indicator: TA1537, Metabolic Activation: NONE, Method: STANDARD PLATE
[2] = Test System: AMES SALMONELLA TYPHIMURIUM, Strain/Indicator: TA100, Metabolic Activation: NONE, Method: STANDARD PLATE
[3] = Test System: AMES SALMONELLA TYPHIMURIUM, Strain/Indicator: TA97, Metabolic Activation: NONE, Method: PREINCUBATION
[4] = Test System: AMES SALMONELLA TYPHIMURIUM, Strain/Indicator: TA98, Metabolic Activation: HAMSTER, LIVER, S-9, AROCLOR 1254 (10 OR 30%), Method: PREINCUBATION
[5] = Test System: AMES SALMONELLA TYPHIMURIUM, Strain/Indicator: TA98, Metabolic Activation: NONE, Method: PREINCUBATION
[6] = Test System: AMES SALMONELLA TYPHIMURIUM, Strain/Indicator: TA98, Metabolic Activation: RAT, LIVER, S-9, AROCLOR 1254 (10 OR 30%), Method: PREINCUBATION
[7] = Test System: AMES SALMONELLA TYPHIMURIUM, Strain/Indicator: TA100, Metabolic Activation: HAMSTER, LIVER, S-9, AROCLOR 1254 (10 OR 30%), Method: PREINCUBATION
[8] = Test System: AMES SALMONELLA TYPHIMURIUM, Strain/Indicator: TA100, Metabolic Activation: NONE, Method: PREINCUBATION
[9] = Test System: AMES SALMONELLA TYPHIMURIUM, Strain/Indicator: TA100, Metabolic Activation: RAT, LIVER, S-9, AROCLOR 1254 (10 OR 30%), Method: PREINCUBATION
[10] = Test System: AMES SALMONELLA TYPHIMURIUM, Strain/Indicator: TA1535, Metabolic Activation: NONE, Method: PREINCUBATION

SMILES: NC(=O)NO
- mutagenic call (End Point: IN VITRO MICRONUCLEUS, Test System: CHINESE HAMSTER V79 CELLS, Metabolic Activation: NONE): active; positive; effect greater at 16 hr exposure
- mutagenic call (End Point: IN VITRO MICRONUCLEUS, Test System: CHO CELLS, Metabolic Activation: RAT, LIVER, S-9, AROCLOR 1254): active; positive
- mutagenic call (End Point: In vitro micronucleus, Test System: Human lymphoblastoid TK6 cells, Metabolic Activation: None): active; positive (p<0.001)
- mutagenic call (Test System: AMES SALMONELLA TYPHIMURIUM, Strain/Indicator: TA97, Metabolic Activation: NONE, Method: STANDARD PLATE): active; positive
- mutagenic call (Test System: AMES SALMONELLA TYPHIMURIUM, Strain/Indicator: TA97, Metabolic Activation: RAT, LIVER, S-9, AROCLOR 1254, Method: STANDARD PLATE): active; positive
- mutagenic call (Test System: AMES SALMONELLA TYPHIMURIUM, Strain/Indicator: TA98, Metabolic Activation: RAT, LIVER, S-9, AROCLOR 1254, Method: STANDARD PLATE): active; positive
- mutagenic call (Test System: AMES SALMONELLA TYPHIMURIUM, Strain/Indicator: TA100, Metabolic Activation: RAT, LIVER, S-9, AROCLOR 1254, Method: STANDARD PLATE): active; positive
- mutagenic call (Test System: AMES SALMONELLA TYPHIMURIUM, Strain/Indicator: TA102, Metabolic Activation: RAT, LIVER, S-9, AROCLOR 1254, Method: STANDARD PLATE): active; positive
- mutagenic call (Test System: AMES SALMONELLA TYPHIMURIUM, Strain/Indicator: TA1535, Metabolic Activation: NONE, Method: STANDARD PLATE): inactive; negative
- mutagenic call (Test System: AMES SALMONELLA TYPHIMURIUM, Strain/Indicator: TA1535, Metabolic Activation: RAT, LIVER, S-9, AROCLOR 1254, Method: STANDARD PLATE): inactive; negative
- mutagenic call [1]: inactive; negative
- mutagenic call (Test System: E. COLI, Strain/Indicator: WP2 (HCR), Metabolic Activation: NONE, Method: STANDARD PLATE): inactive; negative
- mutagenic call (Test System: MOUSE LYMPHOMA, Strain/Indicator: L5178Y (TK+/TK-), Metabolic Activation: NONE, Method: MICROWELL): active; positive
- mutagenic call (Test System: MOUSE LYMPHOMA, Strain/Indicator: L5178Y (TK+/TK-), Metabolic Activation: NONE, Method: SUSPENSION/PLATE): active; positive
- mutagenic call (Test System: MOUSE LYMPHOMA, Strain/Indicator: L5178Y (TK+/TK-), Metabolic Activation: S-9, Method: MICROWELL): active; positive
- mutagenic call (Test System: UDS RODENT HEPATOCYTES, Strain/Indicator: THY INCORP (NON-S-PHASE), Metabolic Activation: NONE, Method: AUTORADIOGRAPHY): active; positive

SMILES: NC(=O)N(Cc1ccccc1)N=O
- mutagenic call (Test System: AMES SALMONELLA TYPHIMURIUM, Strain/Indicator: TA100, Metabolic Activation: NONE, Method: LIQUID INCUBATION): active; positive
- mutagenic call (Test System: AMES SALMONELLA TYPHIMURIUM, Strain/Indicator: TA1535, Metabolic Activation: NONE, Method: LIQUID INCUBATION): inactive; negative

SMILES: c1ccc2cc3c(cc2c1)c1c(c2ccccc23)O1
- mutagenic call [2]: active; positive

SMILES: CCN(CC)C(=O)c1cccc(C)c1
- mutagenic call (End Point: In vitro chromosomal aberrations, Test System: Chinese hamster ovary (CHO-K1) cells, Metabolic Activation: None): inactive; negative
- mutagenic call (End Point: In vitro chromosomal aberrations, Test System: Chinese hamster ovary (CHO-K1) cells, Metabolic Activation: Rat, Liver, S-9, Aroclor 1254): inactive; negative
- mutagenic call (Test System: AMES SALMONELLA TYPHIMURIUM, Strain/Indicator: TA97, Metabolic Activation: HAMSTER, LIVER, S-9, AROCLOR 1254 (10%), Method: PREINCUBATION): inactive; negative
- mutagenic call (Test System: AMES SALMONELLA TYPHIMURIUM, Strain/Indicator: TA97, Metabolic Activation: HAMSTER, LIVER, S-9, AROCLOR 1254 (30%), Method: PREINCUBATION): inactive; negative
- mutagenic call [3]: inactive; negative
- mutagenic call (Test System: AMES SALMONELLA TYPHIMURIUM, Strain/Indicator: TA97, Metabolic Activation: RAT, LIVER, S-9, AROCLOR 1254 (10%), Method: PREINCUBATION): inactive; negative
- mutagenic call (Test System: AMES SALMONELLA TYPHIMURIUM, Strain/Indicator: TA97, Metabolic Activation: RAT, LIVER, S-9, AROCLOR 1254 (30%), Method: PREINCUBATION): inactive; negative
- mutagenic call [4]: inactive; negative
- mutagenic call [5]: inactive; negative
- mutagenic call [6]: inactive; negative
- mutagenic call [7]: inactive; negative
- mutagenic call [8]: inactive; negative
- mutagenic call [9]: inactive; negative
- mutagenic call (Test System: AMES SALMONELLA TYPHIMURIUM, Strain/Indicator: TA1535, Metabolic Activation: HAMSTER, LIVER, S-9, AROCLOR 1254 (10%), Method: PREINCUBATION): inactive; negative
- mutagenic call (Test System: AMES SALMONELLA TYPHIMURIUM, Strain/Indicator: TA1535, Metabolic Activation: HAMSTER, LIVER, S-9, AROCLOR 1254 (30%), Method: PREINCUBATION): inactive; negative
- mutagenic call [10]: inactive; negative
- mutagenic call (Test System: AMES SALMONELLA TYPHIMURIUM, Strain/Indicator: TA1535, Metabolic Activation: RAT, LIVER, S-9, AROCLOR 1254 (10%), Method: PREINCUBATION): inactive; negative
- mutagenic call (Test System: AMES SALMONELLA TYPHIMURIUM, Strain/Indicator: TA1535, Metabolic Activation: RAT, LIVER, S-9, AROCLOR 1254 (30%), Method: PREINCUBATION): inactive; negative

SMILES: CC(C)(C)C(Br)C(=O)Nc1ccccc1 (centres undefined)
- mutagenic call (Test System: AMES SALMONELLA TYPHIMURIUM, Strain/Indicator: TA100, Metabolic Activation: MOUSE, LIVER, S-9, AROCLOR 1254, Method: STANDARD PLATE): inactive; negative
- mutagenic call [2]: inactive; negative

SMILES: CC(Br)C(Br)COP(=O)(OCC(Br)C(C)Br)OCC(Br)C(C)Br (centres undefined)
- mutagenic call (Test System: AMES SALMONELLA TYPHIMURIUM, Strain/Indicator: TA100, Metabolic Activation: RAT, LIVER, MICROSOMES, PHENOBARBITAL, Method: PREINCUBATION): active; positive
- mutagenic call (Test System: AMES SALMONELLA TYPHIMURIUM, Strain/Indicator: TA100, Metabolic Activation: RAT, LIVER, MICROSOMES, Method: PREINCUBATION): active; positive

SMILES: Nc1ccc(Nc2c3ccccc3nc3ccccc23)cc1
- mutagenic call [1]: active; positive

SMILES: COc1ccc(C(Cl)=C(c2ccc(OC)cc2)c2ccc(OC)cc2)cc1
- mutagenic call (Test System: AMES SALMONELLA TYPHIMURIUM, Strain/Indicator: TA97, Metabolic Activation: HAMSTER, LIVER, S-9, AROCLOR 1254 (10 OR 30%), Method: PREINCUBATION): inactive; negative
- mutagenic call [3]: inactive; negative
- mutagenic call (Test System: AMES SALMONELLA TYPHIMURIUM, Strain/Indicator: TA97, Metabolic Activation: RAT, LIVER, S-9, AROCLOR 1254 (10 OR 30%), Method: PREINCUBATION): inactive; negative
- mutagenic call [4]: inactive; negative
- mutagenic call [5]: inactive; negative
- mutagenic call [6]: inactive; negative
- mutagenic call [7]: inactive; negative
- mutagenic call [8]: inactive; negative
- mutagenic call [9]: inactive; negative
- mutagenic call (Test System: AMES SALMONELLA TYPHIMURIUM, Strain/Indicator: TA1535, Metabolic Activation: HAMSTER, LIVER, S-9, AROCLOR 1254 (10 OR 30%), Method: PREINCUBATION): inactive; negative
- mutagenic call [10]: inactive; negative
- mutagenic call (Test System: AMES SALMONELLA TYPHIMURIUM, Strain/Indicator: TA1535, Metabolic Activation: RAT, LIVER, S-9, AROCLOR 1254 (10 OR 30%), Method: PREINCUBATION): inactive; negative
- mutagenic call (Test System: AMES SALMONELLA TYPHIMURIUM, Strain/Indicator: TA1537, Metabolic Activation: HAMSTER, LIVER, S-9, AROCLOR 1254 (10%), Method: PREINCUBATION): inactive; negative
- mutagenic call (Test System: AMES SALMONELLA TYPHIMURIUM, Strain/Indicator: TA1537, Metabolic Activation: HAMSTER, LIVER, S-9, AROCLOR 1254 (30%), Method: PREINCUBATION): inactive; negative
- mutagenic call (Test System: AMES SALMONELLA TYPHIMURIUM, Strain/Indicator: TA1537, Metabolic Activation: NONE, Method: PREINCUBATION): inactive; negative
- mutagenic call (Test System: AMES SALMONELLA TYPHIMURIUM, Strain/Indicator: TA1537, Metabolic Activation: RAT, LIVER, S-9, AROCLOR 1254 (10 OR 30%), Method: PREINCUBATION): inactive; negative

SMILES: Nc1nc2c(ccc3ncccc32)s1
- mutagenic call (Test System: AMES SALMONELLA TYPHIMURIUM, Strain/Indicator: TA1538, Metabolic Activation: RAT, LIVER, S-9, AROCLOR 1254, Method: STANDARD PLATE): active; positive
